In ChEMBL document CHEMBL1159333, “Halogenated metabolites from the new Okinawan red alga Laurencia yonaguniensis” (J Nat Prod, 2002):
The source made the active and inactive calls. The calls are words filed in the database; no cut-off is given here.

What was measured:
Halomonas aquamarina = assay: Antibacterial activity against Alcaligenes aquamarinus at 100 ug/disk after 24 hrs by paper disk diffusion assay; type: functional, organism-based; settings: Vreelandella aquamarina
Escherichia coli = assay: Antibacterial activity against Escherichia coli at 100 ug/disk after 24 hrs by paper disk diffusion assay; type: functional, organism-based
[1] = Toxicity against Artemia salina nauplii after 24 hrs; type: organism-based; settings: in vivo

CC1(C)[C@H](Br)C[C@H](O)[C@]1(C)[C@@]1(O)CC[C@]2(C)[C@@H](Br)CC[C@@](C)(O)[C@@]2(O)C1 [NEOIRIETETRAOL]
Activity (Halomonas aquamarina): Active | Activity (Escherichia coli): Active | LC50 at 24 h [1]: 40.1 µM

C#C/C=C\C[C@@H]1O[C@H](/C=C/C)C/C=C\C[C@@H]1Cl
Activity (Halomonas aquamarina): inactive | Activity (Escherichia coli): inactive | LC50 at 24 h [1]: 467 µM
